Assay results reported in the supplement of paper PMC11208160.

Assay: recombinant barcode read abundance after kanamycin selection (control-corrected) (log10(CPM+1)); higher = more efficient recombination; sequences stand for … in AGTGCAGAGAAAATCGGCCAGTTTTCTCTGCCTGCAGTCCGCATGCCGT…AGATTTATGCAGCGGACTGCCTTTCTCCCAAAGTGATAAACCGGACAGTATCATGGACCGGTTTTCCCGGTAATCCGTATTTGCAAGGTTGGTTTCACT; site = the 11-nt target
Protocol: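 Pooled E. coli target-specificity screen for the IS621 bridge recombinase. Each library plasmid pairs an 11-nt target (CT core) with a bridge RNA whose target-binding loop (9-nt LTG + 4-nt RTG) is reprogrammed; the rest of the 177-nt WT IS621 bridge RNA scaffold is fixed. The plasmid is co-electroporated with a WT donor plasmid; recombinase is induced with 0.1 mM IPTG and recombinants are selected on kanamycin. Recombinant barcodes are sequenced, converted to CPM, averaged over two biological replicates and corrected by the unselected control CPM. Molecule = full bridge RNA written as DNA: LTG = specificity nt 1-9, RTG = reverse complement of specificity nt 8-11, in the WT scaffold.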
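Also: IS621 recombinase and bridge RNA in Escherichia coli cells.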

Sequence | recombinant barcode read abundance (log10)
AAAAGCCCTTGGGTTCTAACCTGTTGCCT (site ACAAGCCCTAG) | 0.154
AAAAGCCCTTGGGTTCTAACCTGTTGCCT (site AGAAGCCCTAG) | 0.0771
AAAAGCCCTTGGGTTCTAACCTGTTGCCT (site ATAAGCCCTAG) | 0.357
AAACGCTCTTGGGTTCTAACCTGTTGCCT (site AAACGCTCTAG) | 1.75
AAACGCTCTTGGGTTCTAACCTGTTGCCT (site TAACGCTCTAG) | 0.446
AAACTAACTTGGGTTCTAACCTGTTGCCT (site AAACTAACTAG) | 1.31
AAACTAACTTGGGTTCTAACCTGTTGCCT (site ACACTAACTAG) | 0.167
AAACTAACTTGGGTTCTAACCTGTTGCCT (site AGACTAACTAG) | 0.0602
AAACTAACTTGGGTTCTAACCTGTTGCCT (site ATACTAACTAG) | 0.073
AAACTTACTTGGGTTCTAACCTGTTGCCT (site AAACTTACTAG) | 0.721
AAACTTACTTGGGTTCTAACCTGTTGCCT (site AGATTTACTAG) | 0.0102
AAAGCTCCTTGGGTTCTAACCTGTTGCTT (site AAAGCTACTAG) | 0.0734
AAAGCTCCTTGGGTTCTAACCTGTTGCTT (site AAAGCTCCTAA) | 0.318
AAAGGGACTTGGGTTCTAACCTGTTGCCT (site AAAGGGACTAG) | 2.08
AAAGGGACTTGGGTTCTAACCTGTTGCCT (site AAGGAGACTAG) | 0.191
AAATCTGCTTGGGTTCTAACCTGTTGCCT (site AAATCTGCTAG) | 0.122
AAATCTGCTTGGGTTCTAACCTGTTGCCT (site GGTGGGACTGT) | 0.229
AACAAGCCTTGGGTTCTAACCTGTTGCTG (site AACAAGCCTCA) | 0.896
AACAAGCCTTGGGTTCTAACCTGTTGCTG (site AACATGCCTAA) | 0.0487
AACACGACTTGGGTTCTAACCTGTTGCTC (site AACACGACTGA) | 0.171
AACACGACTTGGGTTCTAACCTGTTGCTC (site CCATATGCTAG) | 0.235
AACAGGCCTTGGGTTCTAACCTGTTGCCT (site AACAGGCCTAG) | 0.0525

Sequence | recombinant barcode read abundance (log10)
AACAGGCCTTGGGTTCTAACCTGTTGCCT (site TGTGACACTTT) | 0
AACATACCTTGGGTTCTAACCTGTTGCCT (site AACATACCTAG) | 0.737
AACATACCTTGGGTTCTAACCTGTTGCCT (site ATCATTCCTAG) | 0.564
AACATCACTTGGGTTCTAACCTGTTGCCG (site AACATCACTCG) | 1.08
AACATCACTTGGGTTCTAACCTGTTGCCG (site AGCATCACTAG) | 0
AACCACTCTTGGGTTCTAACCTGTTGCCT (site AACCACTCTAG) | 2.42
AACCACTCTTGGGTTCTAACCTGTTGCCT (site CACCACTCTAG) | 0.942
AACCACTCTTGGGTTCTAACCTGTTGCCT (site GACCACTCTAG) | 0.266
AACCACTCTTGGGTTCTAACCTGTTGCCT (site TACCACTCTAG) | 1.46
AACCAGTCTTGGGTTCTAACCTGTTGCCG (site AACCAGTCTCG) | 0.898
AACCAGTCTTGGGTTCTAACCTGTTGCCG (site ACCCAGTCTTG) | 0.033
AACCCACCTTGGGTTCTAACCTGTTGCCT (site AACCCACCTAG) | 1.97
AACCCACCTTGGGTTCTAACCTGTTGCCT (site CACCCACCTAG) | 0.56
AACCCACCTTGGGTTCTAACCTGTTGCCT (site GACCCACCTAG) | 0.0506
AACCCACCTTGGGTTCTAACCTGTTGCCT (site TACCCACCTAG) | 0.997
AACGCCACTTGGGTTCTAACCTGTTGCCT (site AACGCCACTAG) | 0.0293
AACGCCACTTGGGTTCTAACCTGTTGCCT (site GACGCCACTAG) | 0.0328
AACGGAGCTTGGGTTCTAACCTGTTGCGG (site AACGGAGCTCC) | 1.78
AACGGAGCTTGGGTTCTAACCTGTTGCGG (site TGCGGAGCTCC) | 0.699
AACGTACCTTGGGTTCTAACCTGTTGCAG (site AACGTACCTCT) | 1.28
AACGTACCTTGGGTTCTAACCTGTTGCAG (site GTGAAGACTAA) | 0.0773
AACTAATCTTGGGTTCTAACCTGTTGCCT (site AACTAATCTAG) | 0.327

Sequence | recombinant barcode read abundance (log10)
AACTAATCTTGGGTTCTAACCTGTTGCCT (site AACTCATCTAG) | 0.0864
AACTAATCTTGGGTTCTAACCTGTTGCCT (site AACTGATCTAG) | 0.0845
AACTAATCTTGGGTTCTAACCTGTTGCCT (site AACTTATCTAG) | 0.0117
AACTAGTCTTGGGTTCTAACCTGTTGCTA (site AACCAGTCTTC) | 0.0577
AACTAGTCTTGGGTTCTAACCTGTTGCTA (site AACTAGTCTTA) | 1.27
AACTATTCTTGGGTTCTAACCTGTTGCCT (site AACTATTCTAG) | 0.374
AACTATTCTTGGGTTCTAACCTGTTGCCT (site ATGTATTCTAG) | 0.114
AACTCATCTTGGGTTCTAACCTGTTGCCT (site AACTAATCTAG) | 0.0366
AACTCATCTTGGGTTCTAACCTGTTGCCT (site AACTCATCTAG) | 0.378
AACTCATCTTGGGTTCTAACCTGTTGCCT (site AACTGATCTAG) | 0.149
AACTCATCTTGGGTTCTAACCTGTTGCCT (site AACTTATCTAG) | 0.0223
AACTTATCTTGGGTTCTAACCTGTTGCCT (site AACTAATCTAG) | 1.02
AACTTATCTTGGGTTCTAACCTGTTGCCT (site AACTCATCTAG) | 0.0843
AACTTATCTTGGGTTCTAACCTGTTGCCT (site AACTGATCTAG) | 0.0896
AACTTATCTTGGGTTCTAACCTGTTGCCT (site AACTTATCTAG) | 0.812
AACTTCACTTGGGTTCTAACCTGTTGCCT (site AACTTCACTAG) | 1.12
AACTTCACTTGGGTTCTAACCTGTTGCCT (site AACTTCCCTAG) | 0.013
AACTTCACTTGGGTTCTAACCTGTTGCCT (site AACTTCGCTAG) | 0.364
AACTTCACTTGGGTTCTAACCTGTTGCCT (site AACTTCTCTAG) | 0.0193
AACTTTCCTTGGGTTCTAACCTGTTGCAT (site AACTATCCTAT) | 0.0732
AACTTTCCTTGGGTTCTAACCTGTTGCAT (site AACTCTCCTAT) | 0.465
AACTTTCCTTGGGTTCTAACCTGTTGCAT (site AACTGTCCTAT) | 0.0344
